We go through 7 compounds from patent US8846669B2, “Oxazolidinone derivative and medical composition containing same” (Legochem Biosciences, Inc., priority 2011, dated 2014).

Experiment in all cases: In vitro antibacterial activity, broth microdilution MIC90
What all share (format): cell-based
A general note: In broth dilution the organism is exposed to a series of concentrations in liquid medium.

Test [1] has as its system Staphylococcus epidermidis. The method in brief:
(§1)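 Broth microdilution followed CLSI M7-A5. Final test concentrations ranged from 0.063 to 128 μg/mL, with 2.5% (V/V) DMSO as excipient and linezolid as control.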

Test [2] concerns Linezolid and Vancomycin Resistant Enterococcus faecium (strain 10). The method in brief: as §1
In test [3] the test system is Moraxella catarrhalis. The method in brief: as §1
Test [4] relates to Methicillin Resistant Staphylococcus aureus. The method in brief: as §1
Test [5] has as its system Linezolid and Vancomycin Resistant Enterococcus faecium (strain 11). The method in brief: as §1
In test [6] the test system is Enterococcus faecalis. The method in brief: as §1
Test [7] concerns Enterococcus faecium. The method in brief: as §1
For test [8], the system named is Vancomycin Resistant Enterococcus faecium. The method in brief: as §1
The subject of test [9] is Methicillin Resistant Staphylococcus epidermidis. The method in brief: as §1
The test system of test [10] is Linezolid and Vancomycin Resistant Enterococcus faecalis. The method in brief:
as §1

Test [11] concerns Staphylococcus aureus. The method in brief:
as §1

Test [12] has as its system Vancomycin Resistant Enterococcus faecalis. The method in brief:
as §1

[13] abbreviates: Staphylococcus epidermidis, strain 3, S. epidermidis, read-out: MIC90.
The mark [14] stands for this setting: Enterococcus faecium, strain 10, E. faecium VanA LR, read-out: MIC90.
The mark [15] stands for this setting: Moraxella catarrhalis, strain 12, M. catarrhalis, read-out: MIC90.
Where [16] appears, read: Staphylococcus aureus, strain 2, S. aureus MR, read-out: MIC90.
Where [17] appears, read: Enterococcus faecium, strain 11, E. faecium VanA LR, read-out: MIC90.
Where [18] appears, read: Enterococcus faecalis, strain 5, E. faecalis, read-out: MIC90.
The mark [19] stands for this setting: Enterococcus faecium, strain 8, E. faecium, read-out: MIC90.
Setting [20] is: Enterococcus faecium, strain 9, E. faecium VanA, read-out: MIC90.
Setting [21] is: Staphylococcus epidermidis, strain 4, S. epidermidis MR, read-out: MIC90.
The mark [22] stands for this setting: Enterococcus faecalis, strain 7, E. faecalis VanA LR, read-out: MIC90.
Where [23] appears, read: Staphylococcus aureus, strain 1, S. aureus, read-out: MIC90.
Where [24] appears, read: Enterococcus faecalis, strain 6, E. faecalis VanA, read-out: MIC90.

One may read the MIC90 as an inhibitory concentration at the 90% level, which refers to growth in some studies and to a panel of isolates in others.

Values after ≈ are worked out from the molar mass of the structure shown. Where two headings read alike, the source gives them in different places.

As to `CC(=O)NC[C@H]1CN(c2ccc(-c3ccc(N4C=NNCC4)nc3)c(F)c2)C(=O)O1` [Compound 2], the MIC90 in test [1] (Staphylococcus epidermidis) turned out to be 0.5 µg/mL (≈ 1.21 µM); in test [2] (Enterococcus faecium), 2 µg/mL (≈ 4.85 µM); in test [3] (Moraxella catarrhalis), 4 µg/mL (≈ 9.7 µM); in test [4] (Staphylococcus aureus) it was 1 µg/mL (≈ 2.42 µM); in [5] (Enterococcus faecium), 2 µg/mL (≈ 4.85 µM); in test [6] (Enterococcus faecalis) it was 0.5 µg/mL (≈ 1.21 µM). For the same compound, the MIC90 was 0.5 µg/mL (≈ 1.21 µM) in test [7] (Enterococcus faecium); 0.5 µg/mL (≈ 1.21 µM) in [8] (Enterococcus faecium); 1 µg/mL (≈ 2.42 µM) in [9] (Staphylococcus epidermidis); 2 µg/mL (≈ 4.85 µM) in test [10] (Enterococcus faecalis); 0.5 µg/mL (≈ 1.21 µM) in [11] (Staphylococcus aureus); 0.5 µg/mL (≈ 1.21 µM) in test [12] (Enterococcus faecalis).
With `CC(=O)NC[C@H]1CN(c2ccc(-c3ccc(N4C=NN(C(=O)CO)CC4)nc3)c(F)c2)C(=O)O1` [Compound 11], the MIC90 in test [1] (Staphylococcus epidermidis) was 0.063 µg/mL (≈ 0.134 µM); in [2] (Enterococcus faecium), 0.5 µg/mL (≈ 1.06 µM); in test [3] (Moraxella catarrhalis) it was 1 µg/mL (≈ 2.13 µM); in test [4] (Staphylococcus aureus), 0.25 µg/mL (≈ 0.531 µM); in test [5] (Enterococcus faecium), 1 µg/mL (≈ 2.13 µM); in [6] (Enterococcus faecalis), 0.125 µg/mL (≈ 0.266 µM). Besides, the MIC90 was 0.063 µg/mL (≈ 0.134 µM) in test [7] (Enterococcus faecium); 0.125 µg/mL (≈ 0.266 µM) in test [8] (Enterococcus faecium); 0.25 µg/mL (≈ 0.531 µM) in test [9] (Staphylococcus epidermidis); 0.5 µg/mL (≈ 1.06 µM) in test [10] (Enterococcus faecalis); 0.063 µg/mL (≈ 0.134 µM) in test [11] (Staphylococcus aureus); 0.125 µg/mL (≈ 0.266 µM) in test [12] (Enterococcus faecalis). Further, in [10] (Enterococcus faecalis and Enterococcus faecium which are resistant to linezolid), the “antibacterial activity against linezolid-resistant bacteria (in words)” value is listed as “very high antibacterial activity”.
As for `CC(=O)NC[C@H]1CN(c2ccc(-c3ccc(N4CCON=C4C)nc3)c(F)c2)C(=O)O1` [Compound 62], the MIC90 in test [1] (setting [13]) was determined as 0.5 µg/mL (≈ 1.17 µM); in [2] (setting [14]), 8 µg/mL (≈ 18.7 µM); in test [3] (setting [15]), 4 µg/mL (≈ 9.36 µM); in test [4] (setting [16]), 2 µg/mL (≈ 4.68 µM); in [5] (setting [17]), 4 µg/mL (≈ 9.36 µM); in test [6] (setting [18]) it was 1 µg/mL (≈ 2.34 µM). Moreover, the MIC90 in [7] (setting [19]) was 0.5 µg/mL (≈ 1.17 µM); in test [8] (setting [20]), 1 µg/mL (≈ 2.34 µM); in test [9] (setting [21]) it was 4 µg/mL (≈ 9.36 µM); in test [10] (setting [22]) it was 4 µg/mL (≈ 9.36 µM); in test [11] (setting [23]) it was 0.5 µg/mL (≈ 1.17 µM); in test [12] (setting [24]), 1 µg/mL (≈ 2.34 µM).
On to `COC(=O)NC[C@H]1CN(c2ccc(-c3ccc(N4CCON=C4C)nc3)c(F)c2)C(=O)O1` [Compound 63], for which the MIC90 in test [1] (setting [13]) turned out to be 1 µg/mL (≈ 2.26 µM); in test [2] (setting [14]), 16 µg/mL (≈ 36.1 µM); in test [3] (setting [15]), 8 µg/mL (≈ 18 µM); in test [4] (setting [16]), 2 µg/mL (≈ 4.51 µM); in test [5] (setting [17]), 16 µg/mL (≈ 36.1 µM); in test [6] (setting [18]), 2 µg/mL (≈ 4.51 µM). In addition, the MIC90 worked out at 1 µg/mL (≈ 2.26 µM) in test [7] (setting [19]); 2 µg/mL (≈ 4.51 µM) in test [8] (setting [20]); 4 µg/mL (≈ 9.02 µM) in [9] (setting [21]); 16 µg/mL (≈ 36.1 µM) in [10] (setting [22]); 2 µg/mL (≈ 4.51 µM) in [11] (setting [23]); 2 µg/mL (≈ 4.51 µM) in test [12] (setting [24]).
With `O=C1O[C@@H](Cn2ccnn2)CN1c1ccc(-c2ccc(N3C=NOCC3)nc2)c(F)c1` [Compound 60], the MIC90 was 0.25 µg/mL (≈ 0.59 µM) in [1] (setting [13]); 1 µg/mL (≈ 2.36 µM) in test [2] (setting [14]); 1 µg/mL (≈ 2.36 µM) in test [3] (setting [15]); 0.25 µg/mL (≈ 0.59 µM) in test [4] (setting [16]); 2 µg/mL (≈ 4.72 µM) in test [5] (setting [17]); 0.25 µg/mL (≈ 0.59 µM) in test [6] (setting [18]). For the same compound, the MIC90 was 0.125 µg/mL (≈ 0.295 µM) in test [7] (setting [19]); 0.125 µg/mL (≈ 0.295 µM) in test [8] (setting [20]); 0.25 µg/mL (≈ 0.59 µM) in test [9] (setting [21]); 1 µg/mL (≈ 2.36 µM) in test [10] (setting [22]); 0.125 µg/mL (≈ 0.295 µM) in test [11] (setting [23]); 0.25 µg/mL (≈ 0.59 µM) in test [12] (setting [24]).
In the case of `O=C(C(O)CO)N1CCN(c2ccc(-c3ccc(N4C[C@H](COc5ccon5)OC4=O)cc3F)cn2)C=N1` (stereo partly shown) [Compound 50], the MIC90 is 1 µg/mL (≈ 1.9 µM) in test [1] (strain 3, S. epidermidis); 16 µg/mL (≈ 30.4 µM) in test [2] (strain 10, E. faecium VanA LR); more than 128 µg/mL in test [3] (strain 12, M. catarrhalis); 1 µg/mL (≈ 1.9 µM) in test [4] (strain 2, S. aureus MR); 32 µg/mL (≈ 60.8 µM) in [5] (strain 11, E. faecium VanA LR); 2 µg/mL (≈ 3.8 µM) in test [6] (strain 5, E. faecalis). Moreover, the MIC90 in test [7] (strain 8, E. faecium) was found to be 0.5 µg/mL (≈ 0.95 µM); in [8] (strain 9, E. faecium VanA) it was 2 µg/mL (≈ 3.8 µM); in test [9] (strain 4, S. epidermidis MR), 4 µg/mL (≈ 7.6 µM); in [10] (strain 7, E. faecalis VanA LR) it was 16 µg/mL (≈ 30.4 µM); in test [11] (strain 1, S. aureus), 0.5 µg/mL (≈ 0.95 µM); in test [12] (strain 6, E. faecalis VanA), 4 µg/mL (≈ 7.6 µM).
Turning to `CC(=O)NC[C@H]1CN(c2ccc(-c3ccc(N4C=NOCC4)nc3)c(F)c2)C(=O)O1` [Compound 57], the MIC90 in [1] (setting [13]) was 0.25 µg/mL (≈ 0.605 µM); in test [2] (setting [14]) it was 1 µg/mL (≈ 2.42 µM); in test [3] (setting [15]) it was 2 µg/mL (≈ 4.84 µM); in [4] (setting [16]), 0.5 µg/mL (≈ 1.21 µM); in test [5] (setting [17]), 2 µg/mL (≈ 4.84 µM); in [6] (setting [18]), 0.25 µg/mL (≈ 0.605 µM). Moreover, the MIC90 was 0.125 µg/mL (≈ 0.302 µM) in [7] (setting [19]); 0.125 µg/mL (≈ 0.302 µM) in [8] (setting [20]); 0.5 µg/mL (≈ 1.21 µM) in test [9] (setting [21]); 1 µg/mL (≈ 2.42 µM) in test [10] (setting [22]); 0.25 µg/mL (≈ 0.605 µM) in test [11] (setting [23]); 0.25 µg/mL (≈ 0.605 µM) in [12] (setting [24]).
